Consider six molecules from ChEMBL document CHEMBL4229332, “Novel multi-target azinesulfonamides of cyclic amine derivatives as potential antipsychotics with pro-social and pro-cognitive effects” (Eur J Med Chem, 2018).

Usually inhibition stands for the drop in the measured response relative to a control, in per cent. In general, Ki refers to a measure of affinity in units of concentration, obtained from inhibition or displacement. A high value points to a looser hold on the target. A word on the EC50: it is the midpoint of the concentration-response curve. What is called Kb is the affinity of an antagonist, worked out from how it opposes an agonist.

Data set [1] addresses T1, 5-hydroxytryptamine receptor 1A (Homo sapiens) (UniProt P08908).
T1 sequence (whole entry): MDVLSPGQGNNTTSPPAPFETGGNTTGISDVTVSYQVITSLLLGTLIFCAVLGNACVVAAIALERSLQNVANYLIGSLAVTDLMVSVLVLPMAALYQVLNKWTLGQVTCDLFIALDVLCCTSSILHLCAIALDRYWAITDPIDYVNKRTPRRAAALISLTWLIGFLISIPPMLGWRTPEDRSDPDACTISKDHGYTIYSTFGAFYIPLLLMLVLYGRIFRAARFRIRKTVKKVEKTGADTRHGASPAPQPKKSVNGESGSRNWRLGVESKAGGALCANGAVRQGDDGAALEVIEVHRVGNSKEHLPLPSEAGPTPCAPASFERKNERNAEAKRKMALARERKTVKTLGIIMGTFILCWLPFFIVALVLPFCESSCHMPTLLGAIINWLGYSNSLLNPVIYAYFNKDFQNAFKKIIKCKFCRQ
As to conditions: CHO-K1, 10^-7 M.

For data set [2], the system named is Rattus norvegicus. In words: Toxicity in Wistar rat assessed as increase in prolactin level at 3 mg/kg, po after 60 mins by ELISA. Type of data set: organism-based. The settings on record: in vivo, 1 h. (ELISA stands for enzyme-linked immunosorbent assay.)
The nature of data set [3]: Toxicity in ip dosed Sprague-Dawley rat assessed as sedation pretreated for 60 mins followed by PCP addition measured for 30 mins starting 15 min after rat reintroduction to auto-tracks. Type of data set: organism-based. As to conditions: in vivo.
A short description of data set [4]: (§1) Toxicity in ip dosed Sprague-Dawley rat assessed as induction of catalepsy measured every 30 mins up to 240 mins by bar test. The settings on record: Sprague-Dawley, in vivo. The data set is classed as organism-based.
For data set [5], the system named is Rattus norvegicus. In words: Effect on failure incidence during conditioned avoidance response test in Sprague-Dawley rat at 2 mg/kg, ip administered 60 mins prior to testing. The data set is classed as ADME, organism-based. As to conditions: in vivo, 1 h.
For data set [6], the species on record is Rattus norvegicus. In words: animal or person. The settings on record: Sprague-Dawley, ip, read-out: MED.
Description: Antipsychotic activity in ip dosed Sprague-Dawley rat assessed as reduction in PCP-induced hyper-locomotion pretreated for 60 mins followed by PCP addition measured for 30 mins starting 15 min after rat reintroduction to auto-tracks
The species entered for data set [7] is Rattus norvegicus. In words: animal or person. The settings on record: Sprague-Dawley, ip, read-out: MED. This is another data set of the same source.
Description: Reversal of PCP-induced cognitive impairment in ip dosed Sprague-Dawley rat assessed as reduction in time spent exploring novel object over familiar object pretreated for 60 mins followed by PCP addition by novel object recognition assay
The species named for data set [8] is Rattus norvegicus. Kind of data set: animal or person. As to conditions: Sprague-Dawley, ip, read-out: MED. The source holds these as a separate data set.
Description: Antipsychotic activity in ip dosed Sprague-Dawley rat assessed as suppression of avoidance behavior by avoiding foot shock administered 60 mins prior to test by conditioned avoidance response test
Data set [9] concerns Rattus norvegicus. Kind of data set: Effect on failure incidence during conditioned avoidance response test in Sprague-Dawley rat at 0.3 mg/kg, ip administered 60 mins prior to testing. As to conditions: in vivo, 1 h. The data set is classed as ADME, organism-based.
The species entered for data set [10] is Rattus norvegicus. Kind of data set: animal or person. As to conditions: Sprague-Dawley, ip, read-out: MED. The source holds these as a separate data set.
Description: Reversal of ketamine-induced working social withdrawal in ip dosed Sprague-Dawley rat pretreated for 60 mins followed by ketamine administration
In data set [11] the target is T2, 5-hydroxytryptamine receptor 2A (Homo sapiens, UniProt P28223). Kind of data set: biochemical. Type of data set: cell-based, CHO-K1.
Data set [12] addresses T3, 5-hydroxytryptamine receptor 1A (Homo sapiens, UniProt P08908).
T3 sequence (P08908 whole entry): T1 sequence (whole entry)
In words: Partial agonist activity at human 5-HT1AR expressed in CHO-K1 cells assessed as increase in cAMP accumulation by chemiluminescence-based assay. Type of data set: functional, cell-based.

The target in data set [13] is T1, 5-hydroxytryptamine receptor 1A (Homo sapiens). Kind of data set: Partial agonist activity at human 5-HT1AR expressed in CHO-K1 cells assessed as increase in cAMP accumulation at 10^-6 M by chemiluminescence-based assay relative to serotonin. Type of data set: functional, cell-based. For orientation: cAMP levels reflect the balance of adenylyl cyclase and phosphodiesterase activity.

Data set [14] deals with T2, 5-hydroxytryptamine receptor 2A. In words: Antagonist activity at human 5-HT2AR expressed in HEK293 cells assessed as inhibition of serotonin-induced calcium flux at 10^-6 M after 30 mins by HTRF method. Type of data set: functional, cell-based. (In general: A change in cytosolic calcium serves as a functional read-out for many receptors and channels.)
Data set [15] has the same target. In words: Antagonist activity at human 5-HT2AR expressed in HEK293 cells assessed as inhibition of serotonin-induced calcium flux after 30 mins by HTRF method. The data set is classed as functional, cell-based.
Data set [16] addresses 5-hydroxytryptamine receptor 6 (Homo sapiens, UniProt P50406). Kind of data set: Antagonist activity at human 5-HT6R expressed in CHO-K1 cells assessed as inhibition of serotonin-induced cAMP accumulation at 10^-6 M after 30 mins by chemiluminescence-based assay. Type of data set: functional, cell-based.
In data set [17] the target is T4, 5-hydroxytryptamine receptor 7 (Homo sapiens, UniProt P34969). Kind of data set: Antagonist activity at human 5-HT7R expressed in CHO-K1 cells assessed as inhibition of serotonin-induced cAMP accumulation after 30 mins by chemiluminescence-based assay. Type of data set: functional, cell-based.
The target of data set [18] is T4, 5-hydroxytryptamine receptor 7. In words: Antagonist activity at human 5-HT7R expressed in CHO-K1 cells assessed as inhibition of serotonin-induced cAMP accumulation at 10^-6 M after 30 mins by chemiluminescence-based assay. The data set is classed as functional, cell-based.
Data set [19] deals with D(2) dopamine receptor (Homo sapiens) (UniProt P14416). Kind of data set: Antagonist activity at human D2LR expressed in CHO-K1 cells assessed as inhibition of dopamine-induced calcium flux by fluorimetric method. The data set is classed as functional, cell-based.
Data set [20] shares this target. Kind of data set: Antagonist activity at human D2LR expressed in CHO-K1 cells assessed as inhibition of dopamine-induced calcium flux at 10^-6 M by fluorimetric method. Type of data set: functional, cell-based.
The target of data set [21] is D(3) dopamine receptor (Homo sapiens) (UniProt P35462). Kind of data set: Antagonist activity at human D3R expressed in CHO-K1 cells assessed as inhibition of dopamine induced cAMP accumulation at 10^-6 M after 30 mins by HTRF method. Type of data set: functional, cell-based.
The nature of data set [22]: Drug level in Wistar rat plasma at 3 mg/kg, ip measured after 15 mins by LC-MS/MS analysis. Type of data set: ADME, organism-based.
The nature of data set [23]: Drug level in Wistar rat plasma at 3 mg/kg, ip measured after 30 mins by LC-MS/MS analysis. The data set is classed as ADME, organism-based.
A short description of data set [24]: Drug level in Wistar rat plasma at 3 mg/kg, ip measured after 60 mins by LC-MS/MS analysis. Type of data set: ADME, organism-based.
Data set [25] can be described thus: Drug level in Wistar rat brain at 3 mg/kg, ip measured after 15 mins by LC-MS/MS analysis. Type of data set: ADME, organism-based. As to conditions: read-out: Drug uptake.
Data set [26] can be described thus: Drug level in Wistar rat brain at 3 mg/kg, ip measured after 30 mins by LC-MS/MS analysis. The settings on record: read-out: Drug uptake. The data set is classed as ADME, organism-based.
A short description of data set [27]: Drug level in Wistar rat brain at 3 mg/kg, ip measured after 60 mins by LC-MS/MS analysis. The data set is classed as ADME, organism-based. As to conditions: read-out: Drug uptake.
Data set [28] can be described thus: Ratio of drug level in brain to plasma in Wistar rat at 3 mg/kg, ip measured after 15 mins by LC-MS/MS analysis. The data set is classed as ADME, organism-based. The settings on record: read-out: BPR.
Data set [29] in a line: Ratio of drug level in brain to plasma in Wistar rat at 3 mg/kg, ip measured after 30 mins by LC-MS/MS analysis. Type of data set: ADME, organism-based. As to conditions: read-out: BPR.
The nature of data set [30]: Ratio of drug level in brain to plasma in Wistar rat at 3 mg/kg, ip measured after 60 mins by LC-MS/MS analysis. Type of data set: ADME, organism-based. As to conditions: read-out: BPR.
Data set [31] has as its system Rattus norvegicus. In words: Antipsychotic activity in Sprague-Dawley rat assessed as reduction in PCP-induced hyper-locomotion at 1 to 3 mg/kg, ip pretreated for 60 mins followed by PCP addition measured for 30 mins starting 15 min after rat reintroduction to auto-tracks. The data set is classed as functional, organism-based.
Data set [32] concerns the target T3, 5-hydroxytryptamine receptor 1A. Kind of data set: biochemical.
Description: Displacement of [3H]-8-OH-DPAT from human 5-HT1AR expressed in HEK293 cell membranes after 1 hr by microbeta counting method
The target of data set [33] is T4, 5-hydroxytryptamine receptor 7. In words: biochemical.
Description: Displacement of [3H]-5-CT from human 5-HT7R expressed in HEK293 cell membranes after 1 hr at 37 degC by microbeta counting method
Data set [34] deals with Rattus norvegicus. Kind of data set: Effect on failure incidence during conditioned avoidance response test in Sprague-Dawley rat at 6 mg/kg, ip administered 60 mins prior to testing. As to conditions: in vivo, 1 h. The data set is classed as ADME, organism-based.
Data set [35] deals with Rattus norvegicus. In words: Reversal of ketamine-induced working social withdrawal in Sprague-Dawley rat at 1 mg/kg, ip pretreated for 60 mins followed by ketamine administration. Type of data set: functional, organism-based.
Data set [36] deals with Rattus norvegicus. The data set is described as §1. The settings on record: in vivo. Type of data set: organism-based.
A short description of data set [37]: Effect on failure incidence during conditioned avoidance response test in ip dosed Sprague-Dawley rat administered 60 mins prior to testing. Type of data set: ADME, organism-based. The settings on record: in vivo.
The test system of data set [38] is Rattus norvegicus. Kind of data set: Reversal of ketamine-induced working social withdrawal in Sprague-Dawley rat at 0.1 mg/kg, ip pretreated for 60 mins followed by ketamine administration. Type of data set: functional, organism-based.
The test system of data set [39] is Rattus norvegicus. In words: Reversal of PCP-induced cognitive impairment in Sprague-Dawley rat assessed as […] in time spent exploring novel object over familiar object at 0.05 mg/kg, ip pretreated for 60 mins followed by PCP addition by novel object recognition assay. Type of data set: functional, organism-based.

Active and inactive are the calls of the source. The calls are words filed in the database; no cut-off is given here.

T2 sequence (P28223 whole entry): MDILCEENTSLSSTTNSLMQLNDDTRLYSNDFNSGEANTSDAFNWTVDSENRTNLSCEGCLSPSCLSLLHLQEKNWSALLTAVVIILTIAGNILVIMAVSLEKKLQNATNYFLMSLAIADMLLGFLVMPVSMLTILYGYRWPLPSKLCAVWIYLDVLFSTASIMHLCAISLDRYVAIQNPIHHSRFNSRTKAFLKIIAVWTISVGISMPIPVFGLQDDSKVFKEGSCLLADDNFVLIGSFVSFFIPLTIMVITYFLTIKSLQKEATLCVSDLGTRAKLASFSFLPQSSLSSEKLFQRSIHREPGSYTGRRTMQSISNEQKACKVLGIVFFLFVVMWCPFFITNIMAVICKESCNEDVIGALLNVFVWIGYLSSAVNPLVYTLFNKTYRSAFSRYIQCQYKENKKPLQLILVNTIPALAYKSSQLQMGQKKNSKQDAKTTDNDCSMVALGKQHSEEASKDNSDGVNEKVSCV
T4 sequence (P34969 whole entry): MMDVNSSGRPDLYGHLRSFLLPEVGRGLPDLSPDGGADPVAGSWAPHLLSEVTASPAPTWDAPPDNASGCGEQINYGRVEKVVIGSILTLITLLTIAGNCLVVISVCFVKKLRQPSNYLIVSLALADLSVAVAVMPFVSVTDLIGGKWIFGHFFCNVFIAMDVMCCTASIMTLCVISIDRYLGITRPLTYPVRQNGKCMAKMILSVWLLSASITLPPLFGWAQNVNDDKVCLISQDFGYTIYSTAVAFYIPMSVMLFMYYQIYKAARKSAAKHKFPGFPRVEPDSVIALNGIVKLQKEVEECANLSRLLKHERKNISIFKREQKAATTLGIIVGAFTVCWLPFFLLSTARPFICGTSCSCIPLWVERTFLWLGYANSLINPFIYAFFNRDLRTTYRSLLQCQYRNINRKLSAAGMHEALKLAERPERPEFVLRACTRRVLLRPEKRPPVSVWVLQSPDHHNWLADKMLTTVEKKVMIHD
D(2) dopamine receptor (Homo sapiens), sequence (P14416 whole entry): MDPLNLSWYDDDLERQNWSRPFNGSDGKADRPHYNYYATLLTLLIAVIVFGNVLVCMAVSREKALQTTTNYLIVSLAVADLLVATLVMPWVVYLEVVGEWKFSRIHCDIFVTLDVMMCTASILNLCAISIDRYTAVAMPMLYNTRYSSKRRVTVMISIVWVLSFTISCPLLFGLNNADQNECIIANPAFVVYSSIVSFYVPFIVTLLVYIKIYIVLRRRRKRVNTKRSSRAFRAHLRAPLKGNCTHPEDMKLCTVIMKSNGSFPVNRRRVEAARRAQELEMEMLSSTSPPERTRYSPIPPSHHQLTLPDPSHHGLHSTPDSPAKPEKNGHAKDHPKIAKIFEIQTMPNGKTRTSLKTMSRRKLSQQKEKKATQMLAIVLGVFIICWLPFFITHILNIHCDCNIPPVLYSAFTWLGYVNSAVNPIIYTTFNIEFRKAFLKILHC
D(3) dopamine receptor (Homo sapiens), sequence (P35462 whole entry): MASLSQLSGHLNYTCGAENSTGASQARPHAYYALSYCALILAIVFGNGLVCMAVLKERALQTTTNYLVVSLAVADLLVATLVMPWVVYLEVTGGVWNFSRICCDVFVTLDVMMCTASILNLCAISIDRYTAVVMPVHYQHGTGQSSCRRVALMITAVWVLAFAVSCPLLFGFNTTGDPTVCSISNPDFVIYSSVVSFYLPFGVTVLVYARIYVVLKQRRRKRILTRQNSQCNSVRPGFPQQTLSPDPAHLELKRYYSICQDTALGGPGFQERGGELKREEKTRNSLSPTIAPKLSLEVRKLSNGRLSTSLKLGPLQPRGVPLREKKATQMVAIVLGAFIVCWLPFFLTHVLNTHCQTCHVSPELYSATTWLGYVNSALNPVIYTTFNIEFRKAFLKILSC
5-hydroxytryptamine receptor 6, sequence (P50406 whole entry): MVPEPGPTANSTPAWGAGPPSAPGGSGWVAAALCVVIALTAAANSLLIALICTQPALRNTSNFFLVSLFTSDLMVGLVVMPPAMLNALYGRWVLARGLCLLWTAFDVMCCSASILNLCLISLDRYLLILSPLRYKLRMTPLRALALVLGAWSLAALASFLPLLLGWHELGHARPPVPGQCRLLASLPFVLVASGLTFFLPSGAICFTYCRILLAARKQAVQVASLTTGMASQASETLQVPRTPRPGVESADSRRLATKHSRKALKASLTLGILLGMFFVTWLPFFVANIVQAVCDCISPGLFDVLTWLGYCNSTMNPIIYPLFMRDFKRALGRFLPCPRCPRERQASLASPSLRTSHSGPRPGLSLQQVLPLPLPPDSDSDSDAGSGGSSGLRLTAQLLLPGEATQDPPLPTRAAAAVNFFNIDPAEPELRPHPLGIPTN

Molecule `O=C(CCCN1CCC2(CC1)C(=O)NCN2c1ccccc1)c1ccc(F)cc1` displayed an inhibition in [1] of 100%.
As to `Cc1cc2c(s1)Nc1ccccc1N=C2N1CCN(C)CC1` [OLANZAPINE], the Activity entry is reported as “Toxic” with Rattus norvegicus [2] and “Non-Toxic” in the data set with Rattus norvegicus [5]. In addition, in data set [3], the MTD at 0.5 h stood at 1.25 mg/kg. The MTD in data set [4] was determined as 40 mg/kg. Besides, the minimal effective dose stood at 1.88 mg/kg in the data set filed under Rattus norvegicus [6], 1.25 mg/kg in the data set filed under Rattus norvegicus [7] and 1 mg/kg in the data set listed under Rattus norvegicus [8].
For `Cc1nc2n(c(=O)c1CCN1CCC(c3noc4cc(F)ccc34)CC1)CCCC2` [RISPERIDONE], the Activity result with Rattus norvegicus [9] is given as “Non-Toxic”. Moreover, the minimal effective dose in the data set listed under Rattus norvegicus [8] and in the data set listed under Rattus norvegicus [10] was 0.1 mg/kg each time.
Regarding `O=S(=O)(c1cncc2ccccc12)N1CCC[C@@H]1CCN1CCN(c2cccc3sccc23)CC1`, the Ki turned out to be 26 nM in data set [11], 24 nM in [32] and 4 nM in data set [33]. In addition, the EC50 in [12] amounted to 11 nM. Besides, in [13], the Activity amounted to 36%. Also, the inhibition in [14] was 100%; in [16] it was 73%; in data set [18], 100%; in [20], 100%; in data set [21] it was 78%. Moreover, the results for the Kb in [15], in data set [17] and in data set [19] were 9.5 nM, 0.47 nM and 0.74 nM, respectively. For the same molecule, the concentration at 0.25 h was 564 nM in [22] and 266 nM in data set [25]. In addition, the concentration at 0.5 h was 518 nM in data set [23] and 242 nM in data set [26]. Further, the concentration at 1 h came out at 96.7 nM in [24] and 114 nM in data set [27]. For the same molecule, the Kp at 0.25 h in [28] was determined as 0.47. In addition, the Kp at 0.5 h in [29] stood at 0.48. The Kp at 1 h in data set [30] came to 1.24. For the same molecule, the MTD at 0.5 h in data set [3] turned out to be 3 mg/kg. Moreover, the result in the data set with Rattus norvegicus [31] was inactive.
With `CN1CCN(C2=Nc3cc(Cl)ccc3Nc3ccccc32)CC1` [CLOZAPINE], in data set [3], the MTD at 0.5 h was 3 mg/kg. Further, the Activity entry with Rattus norvegicus [34] was “Non-Toxic”. Further, the result with Rattus norvegicus [35] was inactive. Besides, the minimal effective dose in the data set filed under Rattus norvegicus [6], in the data set filed under Rattus norvegicus [7] and in the data set filed under Rattus norvegicus [8] was 1 mg/kg in each case.
With `O=C(CCCN1CCC(O)(c2ccc(Cl)cc2)CC1)c1ccc(F)cc1` [HALOPERIDOL], the MTD at 0.5 h in data set [3] was 0.06 mg/kg. The MTD in data set [4] turned out to be 0.2 mg/kg. Also, the Activity result with Rattus norvegicus [36] is reported as “Dose-dependent effect”. In addition, in data set [37], the MTD at 1 h worked out at 0.2 mg/kg. For the same molecule, the result with Rattus norvegicus [38] and in the data set with Rattus norvegicus [39] was inactive. The minimal effective dose stood at 0.6 mg/kg in the data set filed under Rattus norvegicus [6] and 0.1 mg/kg in the data set listed under Rattus norvegicus [8].
